Measurements reported in patent US8933070B2, “Methods of targeting PTEN mutant diseases and compositions therefor” (University Health Network, priority 2010, dated 2015).
Where two headings read alike, the source gives them in different places.

Tests used:
Aurora B = molecular target: T1, Aurora B (Homo sapiens, UniProt Q96GD4); test: Aurora B inhibition assay (Z-Lyte); assay type: biochemical; settings: read-out: IC50 Ranges Aurura B
T1 construct: purchased Invitrogen PV3970
Protocol: Aurora B inhibition was determined using the Z-Lyte assay kit from Invitrogen. […] The % inhibition values were determined according to the manufacturer's directions and IC50 values were obtained using a non-linear 4 point logistic curve fit (XLfit4, IDBS).

Syk = Syk (Homo sapiens, UniProt P43405); test: Kinase selectivity assay (CEREP, HTRF); assay type: biochemical; settings: read-out: % Inhibition at 10 μM Concentration
Protocol: (§1) The inhibitory activity of selected compounds was evaluated against a panel of 45 different kinase enzymes by CEREP, France. The assays were performed using standard HTRF assay methods as documented by CEREP against the human orthologues of Abl kinase, Akt1/PKBa, AMPKa, BMX kinase (Etk), Brk, CaMK2a, CaMK4, CDC2/CDK1 (cycB), CHK1, CHK2, c-Met kinase, CSK, EphB4 kinase, ERK1, ERK2 (P42mapk), FGFR2 kinase, FGFR4 kinase, FLT-1 kinase (VEGFR1), FLT-3 kinase, Fyn kinase, IGF1R kinase, IRK (InsR), JNK 2, KDR kinase (VEGFR2), Lck kinase, Lyn kinase, MAPKAPK2, MEK1/MAP2K1, p38a kinase, p38d kinase, p38g kinase, PDGFRb kinase, PDK1, PKA, PKCa, PKCb1, PKCb2, PKCg, Ret kinase, ROCK2, RSK2, Src kinase, Syk, and TRKA. The % Inhibition was determined by the formula; % Inhibition=100×(1−(experimental value−background value)/(high activity control−background value)).

[1] = system: A549 lung cancer cell line; test: Cell growth inhibition, Sulforhodamine B (SRB) assay; assay type: cell-based; settings: Homo sapiens, A549, 120 h, read-out: Cell Line GI50 Range A549
Protocol: (§2) Aliquots (20 μl) from each concentration were overlaid to 80 μl of the pre-seeded cells in the 96-plates to make final concentrations of 10 nM to 50 μM. The cells were cultured for 5 days before the Sulforhodamine B (SRB) assay was performed to determine the compound's cell growth inhibition activity.
(§3) Sulforhodamine B (Sigma, Canada) is a water-soluble dye that binds to the basic amino acids of cellular proteins. Thus, colorimetric measurement of the bound dye provides an estimate of the total protein mass that is related to the cell number. The cells are fixed in situ by gently aspirating off the culture media and adding 50 μl ice cold 10% Trichloroacetic Acid (TCA) per well and incubated at 4° C. for 30-60 min. The plates are washed with water five times and allowed to air dry for 5 min. Addition of 50 μl 0.4% (w/v) SRB solution in 1% (v/v) acetic acid to each well and incubatation for […] at RT completes the staining reaction. Following staining, plates are washed four times with 1% acetic acid to remove unbound dye and then allowed to air dry for 5 min. […] Absorbance is read at 570 nm.
(§4) The percentage (%) of relative growth inhibition was calculated by comparing to DMSO-treated only cells (100%). GI50's were determined for compounds with cytotoxic activity. The GI50 was calculated using GraphPad PRISM software (GraphPad Software, Inc., USA).

[2] = system: MCF-7 luminal breast cancer cell line; test: as above; assay type: cell-based; settings: Homo sapiens, MCF7, 120 h, read-out: Cell Line GI50 Range MCF-7
Protocol: as §2, §3, §4

[3] = system: SW620 colon cancer cell line; test: as above; assay type: cell-based; settings: Homo sapiens, SW-620, 120 h, read-out: Cell Line GI50 Range SW620
Protocol: as §2, §3, §4

[4] = system: human mammary epithelial primary cells (HMEC); test: as above; assay type: cell-based; settings: 120 h, read-out: Cell Line GI50 Range HMEC
Protocol: as §2, §3, §4

Abl kinase = Abl kinase (Homo sapiens, UniProt P00519); test: Kinase selectivity assay (CEREP, HTRF); assay type: biochemical; settings: read-out: % Inhibition at 10 μM Concentration
Protocol: as §1

BMX (Etk) = BMX (Etk) (Homo sapiens, UniProt P51813); test: Kinase selectivity assay (CEREP, HTRF); assay type: biochemical; settings: read-out: % Inhibition at 10 μM Concentration
Chain of BMX (Etk) (P51813 whole entry): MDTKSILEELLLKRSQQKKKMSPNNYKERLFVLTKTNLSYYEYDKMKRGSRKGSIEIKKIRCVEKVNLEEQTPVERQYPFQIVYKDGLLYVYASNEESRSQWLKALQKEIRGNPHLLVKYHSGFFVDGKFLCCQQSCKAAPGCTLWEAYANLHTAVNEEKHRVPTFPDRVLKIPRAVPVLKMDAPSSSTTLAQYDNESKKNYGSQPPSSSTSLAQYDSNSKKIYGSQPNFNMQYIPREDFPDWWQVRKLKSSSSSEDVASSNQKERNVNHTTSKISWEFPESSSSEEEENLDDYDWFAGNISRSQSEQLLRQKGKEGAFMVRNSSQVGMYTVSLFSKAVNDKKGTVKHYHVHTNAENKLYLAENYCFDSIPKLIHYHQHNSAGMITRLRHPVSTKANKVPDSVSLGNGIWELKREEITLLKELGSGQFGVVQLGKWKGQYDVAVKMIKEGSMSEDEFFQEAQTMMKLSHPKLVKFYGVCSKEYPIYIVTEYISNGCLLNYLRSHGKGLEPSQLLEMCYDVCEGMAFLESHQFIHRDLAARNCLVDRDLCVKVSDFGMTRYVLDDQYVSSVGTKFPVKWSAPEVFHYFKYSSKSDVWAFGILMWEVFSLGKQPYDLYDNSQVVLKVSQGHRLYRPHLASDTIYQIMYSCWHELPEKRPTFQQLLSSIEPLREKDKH
Protocol: as §1

Brk = Brk (Homo sapiens, UniProt Q13882); test: Kinase selectivity assay (CEREP, HTRF); assay type: biochemical; settings: read-out: % Inhibition at 10 μM Concentration
Protocol: as §1

CHK2 = CHK2 (Homo sapiens, UniProt O96017); test: Kinase selectivity assay (CEREP, HTRF); assay type: biochemical; settings: read-out: % Inhibition at 10 μM Concentration
Protocol: as §1

ERK (P42mapk) = ERK (P42mapk) (Homo sapiens, UniProt P28482); test: Kinase selectivity assay (CEREP, HTRF); assay type: biochemical; settings: read-out: % Inhibition at 10 μM Concentration
Protocol: as §1

ERK1 = ERK1 (Homo sapiens, UniProt P27361); test: Kinase selectivity assay (CEREP, HTRF); assay type: biochemical; settings: read-out: % Inhibition at 10 μM Concentration
Chain of ERK1 (P27361 whole entry): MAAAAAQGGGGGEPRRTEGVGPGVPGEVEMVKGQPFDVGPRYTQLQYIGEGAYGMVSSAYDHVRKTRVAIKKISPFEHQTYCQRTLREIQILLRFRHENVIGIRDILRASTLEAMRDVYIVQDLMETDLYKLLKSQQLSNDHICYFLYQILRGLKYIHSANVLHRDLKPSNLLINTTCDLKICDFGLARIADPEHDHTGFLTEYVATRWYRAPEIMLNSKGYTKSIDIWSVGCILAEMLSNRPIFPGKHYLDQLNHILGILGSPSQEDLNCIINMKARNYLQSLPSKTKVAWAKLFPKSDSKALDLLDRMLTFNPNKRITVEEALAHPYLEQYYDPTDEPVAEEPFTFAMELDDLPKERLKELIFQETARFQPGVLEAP
Protocol: as §1

EphB4 = EphB4 (Homo sapiens, UniProt P54760); test: Kinase selectivity assay (CEREP, HTRF); assay type: biochemical; settings: read-out: % Inhibition at 10 μM Concentration
Protocol: as §1

FGFR4 = FGFR4 (Homo sapiens, UniProt P22455); test: Kinase selectivity assay (CEREP, HTRF); assay type: biochemical; settings: read-out: % Inhibition at 10 μM Concentration
Protocol: as §1

FLT-1 (VEGFR1) = FLT-1 (VEGFR1) (Homo sapiens, UniProt P17948); test: Kinase selectivity assay (CEREP, HTRF); assay type: biochemical; settings: read-out: % Inhibition at 10 μM Concentration
Protocol: as §1

IRK (InsR) = IRK (InsR) (Homo sapiens, UniProt P06213); test: Kinase selectivity assay (CEREP, HTRF); assay type: biochemical; settings: read-out: % Inhibition at 10 μM Concentration
Chain of IRK (InsR) (P06213 28-1382): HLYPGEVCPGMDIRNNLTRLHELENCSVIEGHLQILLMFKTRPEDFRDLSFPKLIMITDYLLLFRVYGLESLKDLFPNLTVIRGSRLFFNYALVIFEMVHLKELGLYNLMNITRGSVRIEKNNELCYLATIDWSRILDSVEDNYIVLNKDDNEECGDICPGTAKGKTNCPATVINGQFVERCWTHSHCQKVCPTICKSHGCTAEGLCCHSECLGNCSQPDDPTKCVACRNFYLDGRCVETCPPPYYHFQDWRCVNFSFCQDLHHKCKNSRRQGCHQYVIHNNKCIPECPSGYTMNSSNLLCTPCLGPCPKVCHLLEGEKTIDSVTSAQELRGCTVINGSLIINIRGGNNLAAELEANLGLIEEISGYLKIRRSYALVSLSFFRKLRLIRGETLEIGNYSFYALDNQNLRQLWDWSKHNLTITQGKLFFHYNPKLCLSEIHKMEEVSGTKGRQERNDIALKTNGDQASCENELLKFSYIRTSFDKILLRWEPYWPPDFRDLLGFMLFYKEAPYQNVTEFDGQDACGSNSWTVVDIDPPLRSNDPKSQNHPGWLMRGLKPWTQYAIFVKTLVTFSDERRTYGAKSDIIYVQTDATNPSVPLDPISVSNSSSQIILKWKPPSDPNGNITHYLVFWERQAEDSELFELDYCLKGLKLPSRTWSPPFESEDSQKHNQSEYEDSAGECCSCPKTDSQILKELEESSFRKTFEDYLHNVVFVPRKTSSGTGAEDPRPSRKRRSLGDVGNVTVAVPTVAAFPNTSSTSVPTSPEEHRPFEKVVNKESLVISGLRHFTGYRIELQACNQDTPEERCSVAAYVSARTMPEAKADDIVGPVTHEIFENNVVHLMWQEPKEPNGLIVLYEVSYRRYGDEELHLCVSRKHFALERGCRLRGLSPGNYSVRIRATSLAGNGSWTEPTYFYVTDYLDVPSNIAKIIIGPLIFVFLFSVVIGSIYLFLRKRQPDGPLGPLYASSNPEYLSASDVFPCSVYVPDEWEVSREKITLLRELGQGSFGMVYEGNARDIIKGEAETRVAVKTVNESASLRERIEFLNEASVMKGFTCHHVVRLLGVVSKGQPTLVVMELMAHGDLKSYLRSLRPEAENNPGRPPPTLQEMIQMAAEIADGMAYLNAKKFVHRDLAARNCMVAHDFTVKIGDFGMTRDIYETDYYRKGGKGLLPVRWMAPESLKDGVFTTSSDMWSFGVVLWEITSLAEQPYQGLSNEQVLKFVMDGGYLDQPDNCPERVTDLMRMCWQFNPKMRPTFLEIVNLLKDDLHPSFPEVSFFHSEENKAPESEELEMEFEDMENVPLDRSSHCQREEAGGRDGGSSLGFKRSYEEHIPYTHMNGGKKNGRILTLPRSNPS
Protocol: as §1

JNK 2 = JNK 2 (Homo sapiens, UniProt P45984); test: Kinase selectivity assay (CEREP, HTRF); assay type: biochemical; settings: read-out: % Inhibition at 10 μM Concentration
Protocol: as §1

Lck = Lck (Homo sapiens, UniProt P06239); test: Kinase selectivity assay (CEREP, HTRF); assay type: biochemical; settings: read-out: % Inhibition at 10 μM Concentration
Chain of Lck (P06239 whole entry): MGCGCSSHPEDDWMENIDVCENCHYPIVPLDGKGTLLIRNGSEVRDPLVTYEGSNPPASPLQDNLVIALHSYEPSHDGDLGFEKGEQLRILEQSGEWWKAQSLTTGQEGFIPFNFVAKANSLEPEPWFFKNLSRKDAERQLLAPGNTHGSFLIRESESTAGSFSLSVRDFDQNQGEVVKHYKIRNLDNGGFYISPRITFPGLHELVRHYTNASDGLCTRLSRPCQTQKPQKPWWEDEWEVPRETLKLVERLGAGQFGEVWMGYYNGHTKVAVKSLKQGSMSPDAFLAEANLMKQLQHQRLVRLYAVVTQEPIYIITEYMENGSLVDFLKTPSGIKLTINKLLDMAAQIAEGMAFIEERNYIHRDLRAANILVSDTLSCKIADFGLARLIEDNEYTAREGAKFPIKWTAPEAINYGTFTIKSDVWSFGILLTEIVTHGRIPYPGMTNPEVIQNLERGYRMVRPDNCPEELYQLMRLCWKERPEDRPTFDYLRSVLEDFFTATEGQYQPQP
Protocol: as §1

Lyn = Lyn (Homo sapiens, UniProt P07948); test: Kinase selectivity assay (CEREP, HTRF); assay type: biochemical; settings: read-out: % Inhibition at 10 μM Concentration
Protocol: as §1

MEK1/MAP2K1 = MEK1/MAP2K1 (Homo sapiens, UniProt Q02750); test: Kinase selectivity assay (CEREP, HTRF); assay type: biochemical; settings: read-out: % Inhibition at 10 μM Concentration
Protocol: as §1

PDGFRbeta = PDGFRbeta (Homo sapiens, UniProt P09619); test: Kinase selectivity assay (CEREP, HTRF); assay type: biochemical; settings: read-out: % Inhibition at 10 μM Concentration
Protocol: as §1

PKCbeta 2 = PKCbeta 2 (Homo sapiens, UniProt P05771); test: Kinase selectivity assay (CEREP, HTRF); assay type: biochemical; settings: read-out: % Inhibition at 10 μM Concentration
Protocol: as §1

ROCK2 = ROCK2 (Homo sapiens, UniProt O75116); test: Kinase selectivity assay (CEREP, HTRF); assay type: biochemical; settings: read-out: % Inhibition at 10 μM Concentration
Chain of ROCK2 (O75116 whole entry): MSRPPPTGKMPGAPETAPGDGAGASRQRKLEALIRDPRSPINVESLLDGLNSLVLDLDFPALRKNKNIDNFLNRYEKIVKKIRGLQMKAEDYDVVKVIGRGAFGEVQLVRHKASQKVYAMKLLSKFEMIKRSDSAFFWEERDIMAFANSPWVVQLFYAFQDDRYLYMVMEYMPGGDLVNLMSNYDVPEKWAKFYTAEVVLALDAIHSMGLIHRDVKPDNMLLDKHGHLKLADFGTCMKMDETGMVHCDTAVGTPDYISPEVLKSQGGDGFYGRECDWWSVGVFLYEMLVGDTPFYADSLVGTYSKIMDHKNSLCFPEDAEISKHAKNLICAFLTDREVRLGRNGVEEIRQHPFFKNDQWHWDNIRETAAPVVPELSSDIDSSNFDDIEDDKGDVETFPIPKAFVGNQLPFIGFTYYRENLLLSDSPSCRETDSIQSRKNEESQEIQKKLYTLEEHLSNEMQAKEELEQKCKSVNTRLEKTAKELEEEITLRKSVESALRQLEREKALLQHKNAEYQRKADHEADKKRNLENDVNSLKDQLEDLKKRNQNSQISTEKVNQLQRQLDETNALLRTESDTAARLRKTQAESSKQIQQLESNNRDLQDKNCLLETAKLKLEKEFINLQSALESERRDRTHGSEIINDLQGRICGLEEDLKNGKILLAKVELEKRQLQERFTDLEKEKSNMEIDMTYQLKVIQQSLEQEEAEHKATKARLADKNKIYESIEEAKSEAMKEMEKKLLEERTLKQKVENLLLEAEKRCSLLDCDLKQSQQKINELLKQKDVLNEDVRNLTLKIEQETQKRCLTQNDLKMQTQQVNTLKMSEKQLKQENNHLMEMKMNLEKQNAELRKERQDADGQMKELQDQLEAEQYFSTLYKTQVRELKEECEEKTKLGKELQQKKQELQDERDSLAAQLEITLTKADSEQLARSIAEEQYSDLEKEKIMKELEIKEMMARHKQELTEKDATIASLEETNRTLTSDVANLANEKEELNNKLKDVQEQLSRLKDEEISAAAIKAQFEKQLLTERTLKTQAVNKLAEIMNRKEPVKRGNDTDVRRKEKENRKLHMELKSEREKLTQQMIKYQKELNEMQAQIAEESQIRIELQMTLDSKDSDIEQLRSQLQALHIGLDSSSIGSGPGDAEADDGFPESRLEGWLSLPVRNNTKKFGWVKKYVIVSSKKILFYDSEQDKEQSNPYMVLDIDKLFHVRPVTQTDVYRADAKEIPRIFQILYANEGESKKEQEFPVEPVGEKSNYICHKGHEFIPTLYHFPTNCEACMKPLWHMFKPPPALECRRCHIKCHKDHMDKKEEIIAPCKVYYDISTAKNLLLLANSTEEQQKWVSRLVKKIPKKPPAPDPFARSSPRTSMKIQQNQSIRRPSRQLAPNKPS
Protocol: as §1

TRKA = TRKA (Homo sapiens, UniProt P04629); test: Kinase selectivity assay (CEREP, HTRF); assay type: biochemical; settings: read-out: % Inhibition at 10 μM Concentration
Chain of TRKA (P04629 33-796): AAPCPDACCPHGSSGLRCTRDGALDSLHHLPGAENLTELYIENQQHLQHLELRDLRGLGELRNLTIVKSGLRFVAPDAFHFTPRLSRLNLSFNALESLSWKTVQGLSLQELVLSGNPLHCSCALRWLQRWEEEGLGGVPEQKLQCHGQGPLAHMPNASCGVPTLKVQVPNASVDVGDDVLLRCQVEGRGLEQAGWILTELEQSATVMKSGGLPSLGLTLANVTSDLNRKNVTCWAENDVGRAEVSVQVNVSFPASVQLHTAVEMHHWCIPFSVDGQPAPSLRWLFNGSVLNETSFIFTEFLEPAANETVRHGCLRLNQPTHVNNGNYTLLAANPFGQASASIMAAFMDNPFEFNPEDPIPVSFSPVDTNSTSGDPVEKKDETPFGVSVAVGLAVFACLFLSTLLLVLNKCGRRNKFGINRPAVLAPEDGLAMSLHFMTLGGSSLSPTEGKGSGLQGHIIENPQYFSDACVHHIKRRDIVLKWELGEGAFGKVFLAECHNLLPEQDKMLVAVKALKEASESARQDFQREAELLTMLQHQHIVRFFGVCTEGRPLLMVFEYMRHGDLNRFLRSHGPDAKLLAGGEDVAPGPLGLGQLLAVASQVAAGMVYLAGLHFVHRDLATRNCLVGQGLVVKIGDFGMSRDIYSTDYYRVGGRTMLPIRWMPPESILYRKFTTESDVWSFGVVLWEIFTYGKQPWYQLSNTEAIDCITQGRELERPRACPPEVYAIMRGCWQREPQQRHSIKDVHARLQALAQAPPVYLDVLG
Protocol: as §1

c-Met = c-Met (Homo sapiens, UniProt P08581); test: Kinase selectivity assay (CEREP, HTRF); assay type: biochemical; settings: read-out: % Inhibition at 10 μM Concentration
Protocol: as §1

p38delta = p38delta (Homo sapiens, UniProt O15264); test: Kinase selectivity assay (CEREP, HTRF); assay type: biochemical; settings: read-out: % Inhibition at 10 μM Concentration
Protocol: as §1

SMILES	IC50 (Aurora B) [µM]	GI50 [1] [µM]	GI50 [2] [µM]	GI50 [3] [µM]	GI50 [4] [µM]	inhibition at 10 µM (Abl kinase) [%]	inhibition at 10 µM (BMX (Etk)) [%]	inhibition at 10 µM (Brk) [%]	inhibition at 10 µM (CHK2) [%]	inhibition at 10 µM (ERK (P42mapk)) [%]	inhibition at 10 µM (ERK1) [%]	inhibition at 10 µM (EphB4) [%]	inhibition at 10 µM (FGFR4) [%]	inhibition at 10 µM (FLT-1 (VEGFR1)) [%]	inhibition at 10 µM (IRK (InsR)) [%]	inhibition at 10 µM (JNK 2) [%]	inhibition at 10 µM (Lck) [%]	inhibition at 10 µM (Lyn) [%]	inhibition at 10 µM (MEK1/MAP2K1) [%]	inhibition at 10 µM (PDGFRbeta) [%]	further results
COc1ccc2c(c1)[C@@]1(C[C@@H]1c1ccc3c(-c4ccc(N5CCN(C)CC5)nc4)n[nH]c3c1)C(=O)N2 (racemic) [Compound 2]	< 5	< 5	< 5	< 5	20 to 50																inhibition at 10 µM (Syk): -1%
COc1ccc2c(c1)/C(=C\c1ccc3c(/C=C/c4ccc(N5CCN(C)CC5)nc4)n[nH]c3c1)C(=O)N2 [Compound 3]	< 5					23	0	-2	-4	15	2	-1	-30	30	2	15	13	-2	-3	14	inhibition at 10 µM (PKCbeta 2): 4%; inhibition at 10 µM (ROCK2): -20%; inhibition at 10 µM (Syk; Syk, 10 μM): -1%; inhibition at 10 µM (TRKA): 43%; inhibition at 10 µM (c-Met): 2%; inhibition at 10 µM (p38delta): -2%
CN(C)Cc1ccc(/C=C/c2n[nH]c3cc([C@H]4C[C@@]45C(=O)Nc4ccccc45)ccc23)cc1 (racemic) [Compound 35]		< 5	< 5	< 5	5 to 20	100	39	53	-3	2	1	65	-12	30	5	5	100	86	-2	59	inhibition at 10 µM (PKCbeta 2): 26%; inhibition at 10 µM (ROCK2): 32%; inhibition at 10 µM (TRKA): 101%; inhibition at 10 µM (c-Met): 61%; inhibition at 10 µM (p38delta): 5%
